Experiment [1] deals with BMMSC. Briefly: Induction of adipogenesis in human BMMSC cells assessed as increase in ANGPTL4 mRNA at 10 uM incubated for 3 days by qRT-PCR analysis. Format: functional, cell-based. Particulars: time 3.0 day. Background: Real-time PCR tracks product formation cycle by cycle.
In experiment [2] the test system is BMMSC. Briefly: Induction of adipogenesis in human BMMSC cells assessed as increase in ACACB mRNA at 10 uM incubated for 3 days by qRT-PCR analysis. The class given is functional, cell-based. Particulars: time 3.0 day.
The target in experiment [3] is T1, Bile acid receptor (Homo sapiens) (UniProt Q96RI1).
T1 sequence (whole entry): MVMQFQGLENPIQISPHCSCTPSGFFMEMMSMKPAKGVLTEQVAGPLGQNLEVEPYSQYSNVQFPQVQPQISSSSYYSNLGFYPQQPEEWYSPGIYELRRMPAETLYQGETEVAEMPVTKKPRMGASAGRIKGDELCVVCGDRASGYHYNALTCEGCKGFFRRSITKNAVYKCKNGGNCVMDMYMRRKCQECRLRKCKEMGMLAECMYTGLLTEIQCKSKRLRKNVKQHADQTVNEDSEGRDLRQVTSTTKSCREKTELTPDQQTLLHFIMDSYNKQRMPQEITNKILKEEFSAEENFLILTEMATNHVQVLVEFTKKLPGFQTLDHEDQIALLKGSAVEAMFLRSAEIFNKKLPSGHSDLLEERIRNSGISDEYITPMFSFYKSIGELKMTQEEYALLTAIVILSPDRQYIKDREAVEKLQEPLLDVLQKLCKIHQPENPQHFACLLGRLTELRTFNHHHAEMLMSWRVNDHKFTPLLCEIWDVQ
Briefly: Transactivation of FXR (unknown origin) by TR-FRET assay. For orientation: TR-FRET usually uses a lanthanide donor and a delayed reading to cut background.

The test system of experiment [4] is BMMSC. Nature of the experiment: Induction of adipogenesis in human BMMSC cells assessed as increase in HMGCR mRNA at 10 uM incubated for 3 days by qRT-PCR analysis. The class given is functional, cell-based. Particulars: time 3.0 day.
Experiment [5] addresses T2, Peroxisome proliferator-activated receptor delta (Homo sapiens, UniProt Q03181).
T2 sequence (Q03181 whole entry): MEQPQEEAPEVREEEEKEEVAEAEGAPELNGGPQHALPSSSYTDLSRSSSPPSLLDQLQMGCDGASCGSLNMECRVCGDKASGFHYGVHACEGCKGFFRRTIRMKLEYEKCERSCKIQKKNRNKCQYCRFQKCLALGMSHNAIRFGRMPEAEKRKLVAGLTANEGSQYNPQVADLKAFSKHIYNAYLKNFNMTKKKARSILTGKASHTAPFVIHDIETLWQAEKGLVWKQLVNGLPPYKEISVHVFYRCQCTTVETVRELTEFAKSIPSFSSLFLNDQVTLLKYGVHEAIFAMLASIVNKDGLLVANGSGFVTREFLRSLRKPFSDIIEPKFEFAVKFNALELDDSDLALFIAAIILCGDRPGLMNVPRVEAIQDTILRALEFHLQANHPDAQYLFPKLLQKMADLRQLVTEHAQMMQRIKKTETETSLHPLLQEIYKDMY
Nature of the experiment: Binding affinity to PPARdelta (unknown origin) by TR-FRET assay.

Experiment [6] deals with BMMSC. Briefly: Induction of adipogenesis in human BMMSC cells assessed as increase in adiponectin secretion at 10 uM in presence of pioglitazone incubated for 5 days by ELISA. The class given is functional, cell-based. Particulars: time 5.0 day. On the technique in general: ELISA stands for enzyme-linked immunosorbent assay.
The target of experiment [7] is T3, Peroxisome proliferator-activated receptor alpha (Homo sapiens, UniProt Q07869).
T3 sequence (Q07869 whole entry): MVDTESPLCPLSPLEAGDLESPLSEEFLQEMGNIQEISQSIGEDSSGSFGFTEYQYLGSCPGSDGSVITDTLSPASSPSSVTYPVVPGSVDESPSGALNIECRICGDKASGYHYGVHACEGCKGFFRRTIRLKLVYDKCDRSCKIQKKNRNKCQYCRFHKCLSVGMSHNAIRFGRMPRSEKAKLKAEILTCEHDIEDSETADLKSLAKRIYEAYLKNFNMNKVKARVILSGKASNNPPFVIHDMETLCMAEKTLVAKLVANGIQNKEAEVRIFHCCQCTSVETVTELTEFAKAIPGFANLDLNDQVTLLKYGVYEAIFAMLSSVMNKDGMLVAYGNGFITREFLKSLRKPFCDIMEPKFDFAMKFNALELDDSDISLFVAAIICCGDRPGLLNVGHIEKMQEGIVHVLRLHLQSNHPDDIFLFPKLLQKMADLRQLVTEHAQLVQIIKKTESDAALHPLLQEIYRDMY
Nature of the experiment: Binding affinity to PPARalpha (unknown origin) by TR-FRET assay.

Experiment [8] has as its target T4, Oxysterols receptor LXR-alpha (Homo sapiens) (UniProt Q13133).
T4 sequence (whole entry): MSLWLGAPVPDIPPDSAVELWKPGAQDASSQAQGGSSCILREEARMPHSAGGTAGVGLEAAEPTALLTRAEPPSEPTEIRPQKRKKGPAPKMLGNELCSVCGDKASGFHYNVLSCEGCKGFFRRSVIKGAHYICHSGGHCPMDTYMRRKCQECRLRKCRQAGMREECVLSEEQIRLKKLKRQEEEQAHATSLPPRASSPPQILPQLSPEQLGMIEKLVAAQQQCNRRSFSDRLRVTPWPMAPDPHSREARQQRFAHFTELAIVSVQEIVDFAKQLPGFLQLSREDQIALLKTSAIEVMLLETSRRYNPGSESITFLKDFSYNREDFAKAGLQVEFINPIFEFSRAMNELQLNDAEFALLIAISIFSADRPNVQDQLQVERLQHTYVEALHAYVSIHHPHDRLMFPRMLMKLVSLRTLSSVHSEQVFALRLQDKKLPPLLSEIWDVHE
Nature of the experiment: Transactivation of LXRalpha (unknown origin) by TR-FRET assay.

In experiment [9] the test system is BMMSC. Nature of the experiment: Induction of adipogenesis in human BMMSC cells assessed as increase in adiponectin secretion at 10 uM in presence of GW501516 incubated for 5 days by ELISA. Particulars: time 5.0 day. Format: functional, cell-based.
The test system of experiment [10] is BMMSC. Nature of the experiment: Induction of adipogenesis in human BMMSC cells assessed as increase in HMGCS2 mRNA at 10 uM incubated for 3 days by qRT-PCR analysis. The class given is functional, cell-based. Particulars: time 3.0 day.
Experiment [11] relates to BMMSC. Nature of the experiment: Induction of adipogenesis in human BMMSC cells assessed as increase in ACOX1 mRNA at 10 uM incubated for 3 days by qRT-PCR analysis. Format: functional, cell-based. Particulars: time 3.0 day.
Experiment [12] deals with BMMSC. Nature of the experiment: Induction of adipogenesis in human BMMSC cells assessed as increase in adiponectin mRNA at 10 uM incubated for 3 days by qRT-PCR analysis. The class given is functional, cell-based. Particulars: time 3.0 day.
The test system of experiment [13] is BMMSC. Nature of the experiment: Induction of adipogenesis in human BMMSC cells assessed as increase in adiponectin secretion at 10 uM incubated for 5 days by ELISA. The class given is functional, cell-based. Particulars: time 5.0 day.

Activity calls are given as the source filed them. The calls are words filed in the database; no cut-off is given here.

The Ki is the dissociation constant of the complex between target and ligand, obtained from inhibition or displacement. Low readings indicate higher affinity, high ones lower affinity.

Turning to `C=CC(c1ccccc1)c1c(O)cc(O)c2c(=O)cc(-c3ccccc3)oc12` (stereo not drawn), the result in the experiment with BMMSC [1], in the experiment with BMMSC [2], with BMMSC [4], in the experiment on BMMSC [6], with BMMSC [9] and in the experiment with BMMSC [10] was Active. The outcome in the experiment on BMMSC [11], in the experiment on BMMSC [12] and in the experiment on BMMSC [13] was Active. Besides, the outcome in experiment [3] and in experiment [8] was inactive. Besides, the values for the inhibition constant (Ki) in experiment [5] and in experiment [7] were 1180 nM and 960 nM, respectively.

The values are drawn from ChEMBL document CHEMBL4665657, “2-Phenyl-8-(1-phenylallyl)-chromenone compounds have a pan-PPAR modulator pharmacophore” (Bioorg Med Chem, 2019).
